Data reported in patent publication US10640463B2, “Chlorhexidine crystal forms and uses thereof in medicine” (Queen Mary University of London, priority 2016, dated 2020).
Several values for one entry are separate records, joined by “and”; a condition that tells them apart may be missing. Equal values may be shown once.

Assays:
[1] = Chlorhexidine release from electrospun PLA fibres at different temperatures; assay type: physicochemical; details: 5% in electrospun PLA fibres, deionized water, after 120 h
Protocol: Electrospinning was utilized to fabricate spherical chlorhexidine chloride compound doped polylactic acid (PLA) fibres. Polylactic acid (Nature works, 2002D) was dissolved in a mixed solvent of chloroform and acetone (3:1 by volume) at 7 wt %. Spherical chlorhexidine chloride compounds were added at 5% weight to the PLA and mixed using a Rotomix. Electrospinning was carried out at room temperature (25° C.), with a pumping rate set at 1 ml/h, working distance at 15 cm, and voltage at 18 kv. Electrospun PLA fibres were collected on a foil. For the chlorhexidine release test, the fibres were weighed (Salter ANDER-180A weighing scale, UK) and divided into cuvettes, and each sample was 25 mg (n=5). Deionized water was added to each cuvette and fibres were kept immersed. Three groups of chlorhexidine chloride compound doped fibres were tested at different temperatures (25, 37 and 60° C.). At each time point (1, 3, 5, 10, 20, 30, 45, 72, 96, 120 h), the solutions were collected for the UV absorption test (Lambda 35, Perkin Elmer, USA) and replaced with fresh deionized water as in Example 6.

[2] = tested on: Aggregatibacter actinomycetemcomitans (strain-Y4); test: MIC and MBC of chlorhexidine spheres; assay type: cell-based; parameters: key to MIC/MBC class at this concentration: The MIC was defined as the lowest concentration of chlorhexidine spheres that inhibited the growth of microorganism at each time point; The MBC was the lowest concentration of chlorhexidine spheres giving no observable bacterial growth; details: for MIC: planktonic A. actinomycetemcomitans
Protocol: (§1) The effectiveness of the chlorhexidine spheres against a panel of periodontal pathogens was evaluated by measurements of the growth (optical density) of bacterial cultures. Porphyromonas gingivalis (strain-W50), Fusobacterium nucleatum sub species polymorphum (strain-NCTC10562) and Aggregatibacter actinomycetemcomitans (strain-Y4) were grown on blood agar plates and in brain heart infusion (BHI) broth in an anaerobic environment with an atmosphere of 5% H2, 10% CO2, and 85% N2 at 37° C. for 2 days. BHI broth was pre-reduced with 5 μg/ml hemin and 5 μg/ml menadione bisulphite added. Bacterial numbers in the BHI cultures were determined and standardised by serial dilution and enumeration of colony forming units (CFUs) on agar plates. After overnight incubation, the bacterial suspensions were diluted 1:20 with fresh BHI medium to achieve an optical density of 0.1 for P. gingivalis and A. actinomycetemcomitans and 0.2 for F. nucleatum sub sp. polymorphum at 595 nm (OD595) to give approximately 6.5×10^7 colony-forming units (CFU) per ml.
(§2) Negative control (bacterial inoculum only but no chlorhexidine spheres) and blank (medium only) wells were also included. The microtiter plates were incubated for 0, 24 and 48 hours in anaerobic conditions as above and the optical density (OD) was determined at 595 nm to quantify bacterial growth. The MIC was defined as the lowest concentration of chlorhexidine spheres that inhibited the growth of microorganism at each time point. The MBC was the lowest concentration of chlorhexidine spheres giving no observable bacterial growth. MBC was determined following transfer of the microtiter well contents to micro centrifuge tubes, centrifuging to pellet the bacterial cells, washing to remove any remaining chlorhexidine spheres and incubation on blood agar plates. After incubation anaerobically growth of bacteria that had survived the treatment was recorded.

[3] = tested on: Fusobacterium nucleatum sub species polymorphum (strain-NCTC10562); test: MIC and MBC of chlorhexidine spheres; assay type: cell-based; parameters: key to MIC/MBC class at this concentration: The MIC was defined as the lowest concentration of chlorhexidine spheres that inhibited the growth of microorganism at each time point; The MBC was the lowest concentration of chlorhexidine spheres giving no observable bacterial growth; details: for MBC: F. nucleatum sub sp. polymorphum; for MIC: planktonic F. nucleatum sub sp. polymorphum
Protocol: as §1, §2

[4] = tested on: Porphyromonas gingivalis (strain-W50); test: MIC and MBC of chlorhexidine spheres; assay type: cell-based; parameters: key to MIC/MBC class at this concentration: The MIC was defined as the lowest concentration of chlorhexidine spheres that inhibited the growth of microorganism at each time point; The MBC was the lowest concentration of chlorhexidine spheres giving no observable bacterial growth
Protocol: as §1, §2

[5] = 0.00025% chlorhexidine spheres, 24 hours
[6] = 0.00025% chlorhexidine spheres, 48 hours
[7] = 0.0005% chlorhexidine spheres, 24 hours
[8] = 0.0005% chlorhexidine spheres, 48 hours
[9] = 0.001% chlorhexidine spheres, 24 hours
[10] = 0.001% chlorhexidine spheres, 48 hours
[11] = 0.002% chlorhexidine spheres, 24 hours
[12] = 0.002% chlorhexidine spheres, 48 hours
[13] = planktonic P. gingivalis, 48 hours

chlorhexidine dissolved ([1]; 25° C.): 65.8%
chlorhexidine dissolved ([1]; 37° C.): 79.7%
chlorhexidine dissolved ([1]; 60° C.): 89.6%
MIC/MBC class at this concentration [2, 5]: MBC
MIC/MBC class at this concentration [2, 6]: MBC
MIC/MBC class at this concentration [2, 7]: MBC
MIC/MBC class at this concentration [2, 8]: MBC
MIC/MBC class at this concentration [2, 9]: MBC
MIC/MBC class at this concentration [2, 10]: MBC
MIC ([2]; 24 hours): 0.00025%
MIC ([2]; 48 hours): 0.00025%
MIC/MBC class at this concentration [3, 7]: No Inhibition
MIC/MBC class at this concentration [3, 8]: No Inhibition
MIC/MBC class at this concentration [3, 9]: MBC
MIC/MBC class at this concentration [3, 10]: MBC
MIC/MBC class at this concentration [3, 11]: MBC
MIC/MBC class at this concentration [3, 12]: MBC
MIC/MBC class at this concentration ([3]; 0.004% chlorhexidine spheres, 24 hours): MBC
MIC/MBC class at this concentration ([3]; 0.004% chlorhexidine spheres, 48 hours): MBC
threshold for inhibition (MIC) ([3]; F. nucleatum, time not stated): 0.001%
MIC ([3]; 24 hours): 0.0005% and 0.001%
MIC ([3]; 48 hours): 0.001%
MIC/MBC class at this concentration [4, 5]: MIC
MIC/MBC class at this concentration [4, 6]: MBC
MIC/MBC class at this concentration [4, 7]: MBC
MIC/MBC class at this concentration [4, 8]: MBC
MIC/MBC class at this concentration [4, 9]: MBC
MIC/MBC class at this concentration [4, 10]: MBC
MIC/MBC class at this concentration [4, 11]: MBC
MIC/MBC class at this concentration [4, 12]: MBC
MIC ([4]; planktonic P. gingivalis, 24 hours): 0.00025%
MIC [4, 13]: 0.00025%
Structure (SMILES): Cl.Cl.N=C(NCCCCCCNC(=N)NC(=N)Nc1ccc(Cl)cc1)NC(=N)Nc1ccc(Cl)cc1 [chlorhexidine spheres]
concentrations with antimicrobial effect ([2]; A. actinomycetemcomitans): ≥ 0.00025%
MBC ([2]; A. actinomycetemcomitans, 24 and 48 hour cultures): 0.00025%
MBC ([3]; 24 hours): 0.001%
MBC ([3]; 48 hours): 0.001%
concentrations with antimicrobial effect ([4]; P. gingivalis): ≥ 0.00025%
MBC ([4]; P. gingivalis, 24 hours): 0.0005%
MBC [4, 13]: 0.00025%
